Measurements from US20260034135A1, “USE OF N6-BENZYLAMINOPURINE AS AN APPETITE SUPPRESSANT” (THE GOVERNING COUNCIL OF THE UNIVERSITY OF TORONTO, priority 2022, published 2026).

Tests used:
[1] = test system: primary hypothalamic neurons; assay: Feeding neuropeptide expression in primary hypothalamic culture (qRT-PCR); format: cell-based, CD-1 mice; details: 100 μM BAP, 16 hr, male- and female-derived cultures (both sexes)
Experimental: (§1) For cell culture experiments, total RNA was isolated using PureLink RNA isolation kit (Thermofisher Scientific, Burlington, ON, Canada) according to the manufacturer's instruction with on column DNase step (PureLink DNAse kit) or DNase I treatment to remove genomic DNA. For mouse experiments, total RNA was isolated using mirVana PARIS RNA and native protein isolation kit (Thermofisher Scientific). RNA quality and quantity were measured using Nanodrop 2000 and 500-1000 ng of complimentary DNA (cDNA) was synthesized with High Capacity cDNA Reverse Transcription kit (Applied biosystems, Thermofisher Scientific). Quantitative reverse transcription polymerase chain reaction (RT-qPCR) was performed with 12.5 ng of cDNA amplified with Platinum SYBR green qPCR SuperMix-UDG with ROX on an Applied Biosystems Prism 7900HT or PowerTrack Green Master Mix on an Applied Biosystems QuantStudio 5 and gene specific primers as per manufacturer's instructions (Table 1). Data was analyzed using […] and normalized to reference gene, either 60S ribosomal protein L7 (Rpl7) or Histone 3a (His).
Because the BAP was being fed to the mice, it is also important to determine what are the direct effects of BAP on native hypothalamic neurons, since the results may be due to an indirect effect from the periphery. Hypothalamus were extracted from male and female CD-1 mice fed a normal chow diet, and primary hypothalamic neurons were cultured from individual mice. The neurons were treated with 100 µM of BAP for 16 hr to assess the effect of BAP on feeding-related neuropeptide expression.

[2] = test system: insulin receptor subunit beta (InsRb); assay: Insulin receptor subunit beta protein level by Western blot in mHypoE-46; format: cell-based, mouse
Experimental: mHypoE-46 cells were serum starved in 5.5 mM glucose (LG) DMEM for 1 hour prior to treatment with vehicle (0.1% DMSO), 100 µM BAP or H20, […] 5-Aminoimidazole-4-carboxamide ribonucleotide (AICAR) or 0 mM glucose DMEM. Protein was harvested using 1× cell lysis buffer (Cell Signaling Technologies, Inc, CST) containing protease and phosphatase inhibitors. A total of 30 μg protein was separated on a 12% SDS-polyacrylamide gels and transferred onto PVDF membranes. Membranes were blocked in 5% milk dissolved in Tris-buffered saline with Tween 20 (TBS-T) for 1 h and incubated with primary antibody overnight at 4° C. phospho-AMPKα (Thr172; cat. 2532S, CST), and total AMPKα (cat. 2535S, CST); phospho-p70-S6K (Thr389; cat. 9205S, CST) and total p70-S6K (cat. 9202S, CST); insulin receptor ß (cat. 3025S, CST); phospho-AKT (Ser473; cat. 9271S, CST) and total AKT (cat. 9272S, CST); phospho-ERK1/2 (Thr202/Tyr204; cat. 9101, CST) and total ERK (cat. 4695, CST) were diluted 1:1000 in 5% milk in TBS-T. Membranes were washed and incubated with secondary HRP-linked antirabbit antibody (1:7500 in 5% milk in TBS-T, CST) for 1 h, washed, and imaged using the Signal Fire ECL Reagent (CST) on the iBright 1500 Imaging System (Thermofisher). Protein density was quantified using ImageJ or the iBright Imaging System.
The mHypoE-46 neurons were exposed to […] BAP for 16 h followed by RNA isolation. […]

mHypoE-38 cell line = assay: Gene expression by qRT-PCR in mHypoE-38 hypothalamic cell line; format: cell-based, mouse; details: 100 μM BAP, 16 hr
Experimental: Hypothalamic neurons from embryonic and adult mice were previously immortalized to generate the clonal cell lines mHypoE-46, mHypoE-44, mHypoE-41, mHypoE-38, mHypoA-59, a FAC-sorted POMC/GFP mouse-derived cell line, mHypoA-POMC/GFP-2, and a mixed culture mHypoA-Bmal1-WT/F cell line (6, 13, 14). The mHypoE-46, mHypoE-44, and mHypoA-Bmal1-WT/F lines were cultured in DMEM containing 1000 mg/L glucose supplemented with 5% FBS and 1% pen/strep. The mHypoE-41, mHypoE-38, and mHypoA-59 cell lines were cultured in DMEM containing 4500 mg/L glucose supplemented with 2% FBS and 1% pen/strep. The mHypoA-POMC/GFP-2 line was cultured in DMEM containing 1000 mg/L glucose supplemented with 2% FBS and 1% pen/strep. […] Neuropeptide gene expression levels were determined by qRT-PCR.
For cell culture experiments, total RNA was isolated using PureLink RNA isolation kit (Thermofisher Scientific, Burlington, ON, Canada) according to the manufacturer's instruction with on column DNase step (PureLink DNAse kit) or DNase I treatment to remove genomic DNA. […] RNA quality and quantity were measured using Nanodrop 2000 and 500-1000 ng of complimentary DNA (cDNA) was synthesized with High Capacity cDNA Reverse Transcription kit (Applied biosystems, Thermofisher Scientific). […] Data was analyzed using […] and normalized to reference gene, either 60S ribosomal protein L7 (Rpl7) or Histone 3a (His).

mHypoA-59 cell line = assay: Gene expression by qRT-PCR in mHypoA-59 hypothalamic cell line; format: cell-based, mouse; details: 100 μM BAP, 16 hr
Experimental: (§2) Hypothalamic neurons from embryonic and adult mice were previously immortalized to generate the clonal cell lines mHypoE-46, mHypoE-44, mHypoE-41, mHypoE-38, mHypoA-59, a FAC-sorted POMC/GFP mouse-derived cell line, mHypoA-POMC/GFP-2, and a mixed culture mHypoA-Bmal1-WT/F cell line (6, 13, 14). The mHypoE-46, mHypoE-44, and mHypoA-Bmal1-WT/F lines were cultured in DMEM containing 1000 mg/L glucose supplemented with 5% FBS and 1% pen/strep. The mHypoE-41, mHypoE-38, and mHypoA-59 cell lines were cultured in DMEM containing 4500 mg/L glucose supplemented with 2% FBS and 1% pen/strep. The mHypoA-POMC/GFP-2 line was cultured in DMEM containing 1000 mg/L glucose supplemented with 2% FBS and 1% pen/strep. All cells were maintained in 5% CO2 at 37° C. BAP was initially dissolved in DMSO solvent (vehicle control) to achieve 1000x the intended dose. The BAP solution was then diluted 1:1000 with the growth media used for the cell line. For co-treatment experiments, the vehicle control for ATP, UDP, and PKI was water, and for the H89 PKA inhibitor was DMSO. Neuropeptide gene expression levels were determined by qRT-PCR.
as §1

[3] = test system: mHypoA-Bmal1-WT/F cell line; assay: Gene expression by qRT-PCR in mHypoA-Bmal1-WT/F hypothalamic cell line; format: cell-based, mouse; details: 100 μM BAP, 16 hr
Experimental: as §2
as §1, with “For mouse experiments, total RNA was isolated using mirVana PARIS RNA and native protein isolation kit (Thermofisher Scientific).” left out

ERK1/2 = ERK1/2 (Thr202/Tyr204) phosphorylation by Western blot in mHypoE-46; format: cell-based, mouse; details: 100 μM BAP, 5 minutes
Experimental: mHypoE-46 cells were serum starved in 5.5 mM glucose (LG) DMEM for 1 hour prior to treatment with vehicle (0.1% DMSO), 100 µM BAP or H20, […] 5-Aminoimidazole-4-carboxamide ribonucleotide (AICAR) or 0 mM glucose DMEM. Protein was harvested using 1× cell lysis buffer (Cell Signaling Technologies, Inc, CST) containing protease and phosphatase inhibitors. A total of 30 μg protein was separated on a 12% SDS-polyacrylamide gels and transferred onto PVDF membranes. […] Protein density was quantified using ImageJ or the iBright Imaging System.
We also assessed the activity of another key signal transduction cascade, the MAPK ERK1/2 pathway. mHypoE-46 neurons were treated with 100 μM BAP and vehicle control for 5 minutes followed by protein isolation and Western blot analysis. The phosphorylation level of ERK1/2, one of the MAPK family members, was assessed.

In the case of `c1ccc(CNc2ncnc3nc[nH]c23)cc1` [BAP, N6-benzylaminopurine], the Agrp expression [1] is reported as “no effects”, the Npy expression [1] is reported as “no effects” and the Pomc expression [1] is reported as “significantly increase”. The “InsR protein level in response to cellular insulin resistance, BAP relative to vehicle control” value ([2]; 100 μM BAP 24 h, insulin pre-treatment (100 μM, 24 h)) was “no change”, the “basal levels of InsRb protein” value ([2]; 100 μM BAP, 24 hours) was “significantly increased” and the “Agrp mRNA expression” value (mHypoE-38 cell line) was “increased”. The “Npy mRNA expression” value (mHypoE-38 cell line) was “no effect”, the “Npy mRNA expression” value (mHypoA-59 cell line) was “no effect” and the “feeding neuropeptide expression (Npy, Agrp) in response to BAP” value (mHypoA-59 cell line) was “no changes in feeding neuropeptide expression”. For the same compound, the “Agrp mRNA expression” value [3] was “increased”, the “Npy mRNA expression” value [3] was “supressed” and the Pomc expression [3] was “significantly induced”. For the same compound, the “ERK1/2 phosphorylation at Thr202/Tyr204” value (ERK1/2) was “significantly decreased”.
